Tested on: HEK293T cells carrying the ATF4 luciferase reporter
Experiment: ATF4-Luc assay, in vitro model of Vanishing Cell White Matter Disease (VWMD)
Type: cell-based
Conditions: Homo sapiens, HEK-293T, 1 μg/mL tunicamycin, 7 hours, One Glo luminescence
Summary of the method: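 Compound at 200 nM and tunicamycin at 1 μg/mL were given together for 7 h to HEK293T cells stably transduced with an ATF4 5′-UTR-driven firefly luciferase reporter. Read-out by luminescence, reported as EC50.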

Compound Cn1ccc(C(=O)NC23CC(NC(=O)COc4ccc(Cl)c(Cl)c4)(C2)C3)n1 [Compound 713, N-{3-[2-(3,4-dichlorophenoxy)acetamido]bicyclo[1.1.1]pentan-1-yl}-1-methyl-1H-pyrazole-3-carboxamide] has an EC50 of 50 to 250 nM.
In the case of N#Cc1cnc(NC23CC(NC(=O)COc4ccc(Cl)c(F)c4)(C2)C3)cn1 [Compound 720, 2-(4-chloro-3-fluorophenoxy)-N-{3-[(5-cyanopyrazin-2-yl)amino]bicyclo[1.1.1]pentan-1-yl}acetamide], the EC50 is reported as > 2000 nM.
O=C(COc1ccc(Cl)c(F)c1)NC12CC(NC(=O)c3nnc4n3CCCC4)(C1)C2 [Compound 844, N-{3-[2-(4-chloro-3-fluorophenoxy)acetamido]bicyclo[1.1.1]pentan-1-yl}-5,6,7,8-tetrahydro[1,2,4]triazolo[4,3-a]pyridine-3-carboxamide] was tested, and the EC50 was > 2000 nM.

Reference: patent publication US10913727B2, “Modulators of the integrated stress pathway” (Calico Life Sciences LLC, priority 2016, dated 2021)
